Experimental data published in ChEMBL document CHEMBL1201862, “PubChem BioAssay data set” (2004).
Activity calls are given as the source filed them.

Columns and labels:
[1] = NIH-3T3 fibroblast cytotoxicity, dose response, cytotoxicity control, cell-based, fluorescence, Alamar Blue, secondary assay (AID 2327); type: functional;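 further: NIH-3T3 mouse fibroblasts cultured with fluconazole at 8 µg/mL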
[2] = C. albicans growth with fluconazole, confirmation, fluorescence, retest (AID 2467); type: functional, cell-based
[3] = biological target: Serine/threonine-protein phosphatase (Candida dubliniensis (strain CD36 / CBS 7987 / NCPF 3949 / NRRLY-17841) (Yeast), UniProt B9W6M3); assay: calcineurin pathway inhibitors in yeast reporter, dose response, S. cerevisiae, CDRE-lacZ, luminescence, secondary (AID 2388); type: functional, cell-based;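 further: yeast reporter cells carrying a calcineurin-responsive lacZ construct stimulated with calcium chloride; luminescent beta-galactosidase reporter signal in whole cells rather than isolated phosphatase activity; potency for inhibition where a drop in reporter signal means calcineurin blockade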
Sequence of Serine/threonine-protein phosphatase (B9W6M3 whole entry): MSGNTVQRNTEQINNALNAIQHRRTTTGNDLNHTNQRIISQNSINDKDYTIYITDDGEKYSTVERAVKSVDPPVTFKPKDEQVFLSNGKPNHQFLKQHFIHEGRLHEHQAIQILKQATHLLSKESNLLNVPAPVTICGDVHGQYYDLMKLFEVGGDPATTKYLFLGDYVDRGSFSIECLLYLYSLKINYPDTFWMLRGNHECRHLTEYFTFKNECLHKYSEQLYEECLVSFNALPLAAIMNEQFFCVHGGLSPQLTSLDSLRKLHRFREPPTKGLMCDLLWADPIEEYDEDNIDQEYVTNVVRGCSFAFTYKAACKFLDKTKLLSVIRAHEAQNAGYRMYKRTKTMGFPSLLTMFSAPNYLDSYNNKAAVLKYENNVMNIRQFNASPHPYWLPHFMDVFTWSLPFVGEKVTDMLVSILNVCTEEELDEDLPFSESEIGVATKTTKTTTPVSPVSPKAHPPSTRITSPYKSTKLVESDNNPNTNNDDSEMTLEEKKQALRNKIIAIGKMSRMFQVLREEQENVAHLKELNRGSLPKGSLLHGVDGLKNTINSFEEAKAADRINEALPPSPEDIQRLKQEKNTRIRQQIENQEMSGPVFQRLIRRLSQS

[4] = biological target: ATP-dependent molecular chaperone HSP82 (Candida albicans (strain WO-1) (Yeast), UniProt C4YTQ8); assay: loss of DOC-induced GRE-beta-galactosidase reporter signal, dose response, Hsp90 inhibitor project, S. cerevisiae, luminescence (AID 2400); type: functional, cell-based;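 further: beta-galactosidase luminescence from glucocorticoid response element reporter as proxy for Hsp90 function; inhibitor potency where signal loss means Hsp90 inhibition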
Sequence of ATP-dependent molecular chaperone HSP82 (C4YTQ8 whole entry): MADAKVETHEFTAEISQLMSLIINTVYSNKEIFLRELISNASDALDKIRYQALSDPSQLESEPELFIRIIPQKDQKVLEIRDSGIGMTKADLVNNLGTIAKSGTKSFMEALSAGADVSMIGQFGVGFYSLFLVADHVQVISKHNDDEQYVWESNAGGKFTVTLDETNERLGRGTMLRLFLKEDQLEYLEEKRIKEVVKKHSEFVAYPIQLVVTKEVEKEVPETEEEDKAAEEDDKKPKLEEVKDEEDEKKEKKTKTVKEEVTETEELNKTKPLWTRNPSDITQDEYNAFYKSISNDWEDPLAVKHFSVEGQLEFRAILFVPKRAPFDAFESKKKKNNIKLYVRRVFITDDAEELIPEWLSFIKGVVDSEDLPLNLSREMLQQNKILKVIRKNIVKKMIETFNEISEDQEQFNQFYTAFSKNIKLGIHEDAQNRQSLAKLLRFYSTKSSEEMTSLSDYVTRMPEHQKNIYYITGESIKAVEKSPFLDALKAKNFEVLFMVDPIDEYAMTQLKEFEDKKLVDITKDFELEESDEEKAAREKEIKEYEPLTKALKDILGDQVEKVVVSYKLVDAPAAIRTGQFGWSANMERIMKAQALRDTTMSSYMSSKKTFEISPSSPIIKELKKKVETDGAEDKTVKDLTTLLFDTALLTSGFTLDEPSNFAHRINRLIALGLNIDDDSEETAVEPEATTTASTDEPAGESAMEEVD

Bcl-2-related protein A1 = biological target: T1, Bcl-2-related protein A1 (Mus musculus, UniProt Q07440); type: functional;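 further: confirmatory dose–response counterscreen on Bfl-1, used to check hits from a UBC13 polyubiquitin inhibitor campaign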
T1 sequence (Q07440 whole entry): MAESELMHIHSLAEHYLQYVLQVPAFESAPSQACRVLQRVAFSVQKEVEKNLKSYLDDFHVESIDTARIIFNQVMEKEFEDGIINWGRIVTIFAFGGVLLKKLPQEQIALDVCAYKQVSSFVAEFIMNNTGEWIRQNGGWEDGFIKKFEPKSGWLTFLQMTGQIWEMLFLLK

[5] = biological target: T2, Ubiquitin-conjugating enzyme E2 N (Homo sapiens, UniProt P61088); type: functional
T2 sequence (P61088 whole entry): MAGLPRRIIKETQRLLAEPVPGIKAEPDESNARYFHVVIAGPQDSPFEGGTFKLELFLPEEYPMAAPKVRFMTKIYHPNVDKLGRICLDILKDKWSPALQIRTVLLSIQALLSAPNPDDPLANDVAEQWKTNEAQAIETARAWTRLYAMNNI

[6] = biological target: T2, Ubiquitin-conjugating enzyme E2 N; type: functional; remark: listed apart in the source
[7] = biological target: T3, Small ubiquitin-related modifier 1 (Homo sapiens, UniProt P63165); assay: inhibitors of SUMO1 peptide binding, dose response, biochemical, fluorescence polarization, uHTS hits (AID 624382); type: functional; settings: read-out: IC50_Mean
T3 sequence (P63165 whole entry): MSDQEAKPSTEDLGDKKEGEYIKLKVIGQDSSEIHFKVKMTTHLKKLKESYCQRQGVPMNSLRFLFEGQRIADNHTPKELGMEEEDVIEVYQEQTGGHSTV

[8] = biological target: T3, Small ubiquitin-related modifier 1; assay: inhibitors of SUMO1 partner interactions, dose response, biochemical, FRET (AID 624383); type: functional; settings: read-out: IC50_Mean
[9] = biological target: T4, Rac GTPase-activating protein 1 (Homo sapiens, UniProt Q9H0H5); assay: MgcRacGAP GTPase-activating activity inhibitors, confirmation, biochemical, ADP Hunter fluorescence, primary and confirmatory (AID 624330); type: functional
T4 sequence (Q9H0H5 whole entry): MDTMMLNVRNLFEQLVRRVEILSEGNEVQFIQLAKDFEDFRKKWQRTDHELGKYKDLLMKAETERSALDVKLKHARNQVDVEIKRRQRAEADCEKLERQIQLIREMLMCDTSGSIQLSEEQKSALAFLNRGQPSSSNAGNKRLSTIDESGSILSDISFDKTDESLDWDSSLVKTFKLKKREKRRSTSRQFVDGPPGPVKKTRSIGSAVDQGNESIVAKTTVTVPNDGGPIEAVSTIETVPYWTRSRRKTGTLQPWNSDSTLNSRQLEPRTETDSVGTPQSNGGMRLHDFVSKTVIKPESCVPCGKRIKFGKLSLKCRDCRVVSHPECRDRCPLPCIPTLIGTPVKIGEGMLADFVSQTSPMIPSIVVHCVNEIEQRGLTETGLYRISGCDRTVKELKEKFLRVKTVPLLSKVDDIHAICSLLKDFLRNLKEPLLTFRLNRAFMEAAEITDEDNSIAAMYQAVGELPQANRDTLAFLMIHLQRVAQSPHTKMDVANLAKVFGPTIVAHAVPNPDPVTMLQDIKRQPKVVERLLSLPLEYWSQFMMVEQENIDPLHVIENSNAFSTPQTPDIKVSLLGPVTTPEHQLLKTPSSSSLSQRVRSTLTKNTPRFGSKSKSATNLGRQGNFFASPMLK

Escherichia coli [10] = assay: microbe, parasite or virus in culture
[11] = biological target: T5, Microphthalmia-associated transcription factor (Homo sapiens, UniProt O75030); assay: TRPM1 promoter luciferase signal decrease, dose response, MITF inhibitor project, cell-based, SK-MEL-5, cherry-picked, set 3 (AID 493073); type: functional
T5 sequence (O75030 whole entry): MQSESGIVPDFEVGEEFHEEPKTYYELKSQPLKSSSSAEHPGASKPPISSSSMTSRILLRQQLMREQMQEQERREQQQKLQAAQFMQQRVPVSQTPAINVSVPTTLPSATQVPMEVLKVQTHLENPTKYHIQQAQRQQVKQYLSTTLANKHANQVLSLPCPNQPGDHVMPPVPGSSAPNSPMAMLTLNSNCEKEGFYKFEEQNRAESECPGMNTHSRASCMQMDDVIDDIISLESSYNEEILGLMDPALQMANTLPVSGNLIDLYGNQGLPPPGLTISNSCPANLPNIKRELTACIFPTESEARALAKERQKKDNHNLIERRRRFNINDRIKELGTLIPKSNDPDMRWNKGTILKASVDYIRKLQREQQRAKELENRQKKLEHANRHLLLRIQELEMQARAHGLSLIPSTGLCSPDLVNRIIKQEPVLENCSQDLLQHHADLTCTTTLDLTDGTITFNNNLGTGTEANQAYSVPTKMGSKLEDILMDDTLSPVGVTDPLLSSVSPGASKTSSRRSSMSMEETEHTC

[12] = biological target: Heat shock protein HSP 90-alpha (Homo sapiens, UniProt P07900); type: functional, organism-based
A-375 [13] = assay: MITF: Counter assay: A375 proliferation Measured in Cell-Based System Using Plate Reader - 2084-03_Inhibitor_Dose_DryPowder_Activity. [Related pubchem assays (depositor defined):AID488944]; type: functional; settings: Homo sapiens
A-375 [14] = assay: A375 melanoma cell viability reduction, dose response, counter-screen for MITF modulator project, cherry-pick samples, set 2 (AID 540335); type: functional, cell-based; settings: Homo sapiens
P388/ADR = assay: cells; type: functional; settings: Mus musculus
SN12K1 = assay: cells; type: functional; settings: Homo sapiens
P388 = assay: cells; type: functional; settings: Mus musculus
Escherichia coli [15] = assay: microbe, parasite or virus in culture; remark: listed apart in the source
[16] = test system: Streptococcus sp. 'group A'; assay: growth inhibition of control SK(-) GAS strain, dose response, counter-screen for streptokinase expression inhibitor project, luminescence, kanamycin, BacTiterGlo, confirmation (AID 1900); type: functional, organism-based
Streptococcus = assay: Group A Streptococcus viability loss, dose response, counter-screen for streptokinase expression inhibitor project, luminescence, BacTiterGlo (AID 1915); type: functional, organism-based;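 further: potency for reduction of bacterial viability or growth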
[17] = THP-1 cell cytotoxicity, dose response, cytotoxicity control for non-replicating M. tuberculosis project (AID 489025); type: functional
[18] = HepG2 cell cytotoxicity, dose response, cytotoxicity control for non-replicating M. tuberculosis project (AID 489018); type: functional; settings: Mycobacterium tuberculosis
[19] = Vero E6 cell cytotoxicity, dose response, cytotoxicity control for non-replicating M. tuberculosis project, secondary assay (AID 492998); type: functional, VeroE6; settings: Vero C1008
[20] = biological target: T6, Short transient receptor potential channel 4 (Mus musculus, UniProt Q9QUQ5); assay: mouse TRPC4 channel activators, dose response, cell-based, HEK293 TRPC4/mu-opioid, Fluo-4 calcium (AID 434937); type: functional
T6 sequence (Q9QUQ5 whole entry): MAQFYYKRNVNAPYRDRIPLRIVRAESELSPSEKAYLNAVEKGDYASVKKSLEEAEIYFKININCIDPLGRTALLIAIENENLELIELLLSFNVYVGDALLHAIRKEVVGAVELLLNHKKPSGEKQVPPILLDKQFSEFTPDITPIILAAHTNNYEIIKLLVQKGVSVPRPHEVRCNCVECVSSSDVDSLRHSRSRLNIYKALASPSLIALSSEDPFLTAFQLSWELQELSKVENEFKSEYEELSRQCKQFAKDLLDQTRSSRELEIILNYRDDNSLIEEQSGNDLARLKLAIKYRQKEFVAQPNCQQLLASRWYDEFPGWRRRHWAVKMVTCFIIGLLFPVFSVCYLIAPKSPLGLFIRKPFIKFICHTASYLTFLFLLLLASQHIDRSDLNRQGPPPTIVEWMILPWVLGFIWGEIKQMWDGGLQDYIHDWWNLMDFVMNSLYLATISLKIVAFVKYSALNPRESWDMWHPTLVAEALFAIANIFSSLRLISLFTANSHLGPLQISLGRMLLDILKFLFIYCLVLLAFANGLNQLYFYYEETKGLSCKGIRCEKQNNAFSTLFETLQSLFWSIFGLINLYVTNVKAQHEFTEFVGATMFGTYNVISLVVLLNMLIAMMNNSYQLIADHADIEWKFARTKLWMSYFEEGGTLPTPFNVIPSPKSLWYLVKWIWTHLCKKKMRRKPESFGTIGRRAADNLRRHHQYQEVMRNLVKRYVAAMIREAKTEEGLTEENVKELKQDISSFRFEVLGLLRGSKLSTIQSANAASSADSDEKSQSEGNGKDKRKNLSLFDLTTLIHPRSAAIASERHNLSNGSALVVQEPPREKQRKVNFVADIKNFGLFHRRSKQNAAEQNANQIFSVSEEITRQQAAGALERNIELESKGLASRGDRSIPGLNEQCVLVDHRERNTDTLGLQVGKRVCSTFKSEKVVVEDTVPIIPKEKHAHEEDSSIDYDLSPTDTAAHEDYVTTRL

cells = type: functional
Vero [21] = assay: cells; type: functional, cell-based; settings: Chlorocebus sabaeus
Vero [22] = assay: cells; type: functional; settings: Chlorocebus sabaeus
[23] = human group III sPLA2 inhibitors, dose response, biochemical, QFRET, IC50 (AID 743457);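 further: green fluorescence rise as the enzyme cleaves BODIPY PC-A2 in liposomes; potency for inhibition of the enzyme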
[24] = biological target: T7, Calpain-2 catalytic subunit (Sus scrofa, UniProt P43367); assay: pig calpain II inhibitor potency, dose response, biochemical, fluorogenic peptide substrate (AID 1420); type: functional
T7 sequence (P43367 whole entry): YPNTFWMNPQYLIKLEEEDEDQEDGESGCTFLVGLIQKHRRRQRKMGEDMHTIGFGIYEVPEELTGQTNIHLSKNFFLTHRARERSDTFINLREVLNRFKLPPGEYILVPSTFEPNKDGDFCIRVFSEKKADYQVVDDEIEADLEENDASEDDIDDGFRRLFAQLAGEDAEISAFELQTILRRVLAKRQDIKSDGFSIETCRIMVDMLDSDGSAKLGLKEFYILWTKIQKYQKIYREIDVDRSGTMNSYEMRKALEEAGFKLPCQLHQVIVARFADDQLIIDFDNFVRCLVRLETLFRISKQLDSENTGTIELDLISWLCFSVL

Cysteine protease ATG4B = Cysteine protease ATG4B (Homo sapiens, UniProt Q9Y4P1); type: functional;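 further: Fluorescence-based dose-response confirmation assay measuring inhibition of ATG4B activity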
Sequence of Cysteine protease ATG4B (Q9Y4P1 whole entry): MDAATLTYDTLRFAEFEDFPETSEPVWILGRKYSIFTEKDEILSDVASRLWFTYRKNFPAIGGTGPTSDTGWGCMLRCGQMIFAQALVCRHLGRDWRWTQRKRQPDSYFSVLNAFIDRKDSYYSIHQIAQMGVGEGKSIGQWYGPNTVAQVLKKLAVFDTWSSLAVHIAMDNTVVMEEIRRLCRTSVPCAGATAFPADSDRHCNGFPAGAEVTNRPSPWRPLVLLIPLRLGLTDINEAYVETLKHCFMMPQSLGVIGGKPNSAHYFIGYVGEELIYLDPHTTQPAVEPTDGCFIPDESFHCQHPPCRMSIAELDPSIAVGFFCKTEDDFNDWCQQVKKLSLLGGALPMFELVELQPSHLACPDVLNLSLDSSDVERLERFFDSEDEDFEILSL

Phospholipase A2 = Phospholipase A2 (Homo sapiens, UniProt P04054); type: functional;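 further: confirmatory dose-response counterscreen on phospholipase A2, testing hits that came from an ultra-high-throughput screen for ATG4B inhibitors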
Sequence of Phospholipase A2 (P04054 whole entry): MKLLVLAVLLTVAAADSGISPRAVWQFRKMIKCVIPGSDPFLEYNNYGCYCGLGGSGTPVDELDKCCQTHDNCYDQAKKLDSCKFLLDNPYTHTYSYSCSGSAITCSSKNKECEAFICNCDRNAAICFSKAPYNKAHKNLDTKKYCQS

COc1ccc(C(=O)NNC(=S)NC(=O)c2ccc(Cl)cc2)cc1
EC50 [1]: > 160 µM (inactive)
EC50 [2]: 0.275 µM (active)
EC50 [3]: > 180 µM (inactive)
EC50 [4]: 13.9 µM (active)

O=C(Nc1ccc(C2=NCCN2)cc1)c1ccc(C(=O)Nc2ccc(C3=NCCN3)cc2)c([N+](=O)[O-])c1
IC50 (Bcl-2-related protein A1): 4.88 µM (active)
IC50 [5]: 3.11 µM (active)
IC50 [6]: 2.17 µM (active)
IC50 [7]: > 66.6 µM (inactive)
IC50 [8]: 3.28 µM (active)
IC50 [9]: 33.1 µM (active)
AC50 (Escherichia coli [10]): 243 µM (active)

CN(C)CC1CC/C(=C\c2ccc(O)cc2)C1=O (stereo unspecified)
AC50 [11]: 12.9 µM (active)
AC50 [12]: 4.38 µM (active)
AC50 (A-375 [13]): > 35 µM (active)
AC50 (A-375 [14]): > 35 µM (active)
GI50 (P388/ADR): 1.69 µM (inactive)
GI50 (SN12K1): 1.78 µM (inactive)
GI50 (P388): 0.491 µM (active)

COc1cc(-c2noc(-c3ccccc3C(=O)NCc3ccco3)n2)cc(OC)c1OC
AC50 (Escherichia coli [15]): 40.5 µM (active)
AC50 (Escherichia coli [10]): 71.1 µM (active)

CC(Oc1ccc(Cl)cc1)C(=O)NNC(=S)NC(=O)c1ccco1 (stereo unspecified)
EC50 [16]: 0.571 µM (active)
EC50 (Streptococcus): 2.29 µM (active)
CC50 [17]: 13.7 µM (active)
CC50 [18]: > 20 µM (active)
CC50 [19]: 11.2 µM (active)
EC50 [20]: 5.31 µM (active)
IC50 (cells): 9.22 µM (active)
AC50 [12]: 1.41 µM (active)
IC50 (Vero [21]): > 25 µM (active)
CC50 (Vero [22]): > 25 µM (active)
IC50 [23]: 34.9 µM (inactive)

COc1ccc(/C=C/c2cc(C(F)(F)F)on2)cc1
AC50 (A-375 [13]): > 35 µM (active)
AC50 (A-375 [14]): > 35 µM (active)

COc1cnc(SCc2c(Cl)cccc2Cl)nc1Cl
IC50 [24]: < 0.4 µM (not active)
IC50 (Cysteine protease ATG4B): 7.76 µM (active)
IC50 (Phospholipase A2): 7.65 µM (active)
